Measurements as given in US20180186814A1, “TRICYCLIC COMPOUND HAVING SULFINYL OR SULFONYL” (Shionogi & Co., Ltd., priority 2015, published 2018).
≈ marks a conversion by molar mass, not a printed value.

What was measured:
Type in all cases: cell-based
E. cloacae ATCC13047 = experiment: MIC by microbroth dilution (CLSI), strain No. 1; details: E. cloacae ATCC13047, AmpC, ceftazidime-resistant, cefepime-sensitive, cation-adjusted Mueller-Hinton broth; for MIC: Enterobacter cloacae, read-out: minimum inhibitory concentration (MIC), Strain No. 1
Description: (§1) The minimum inhibitory concentration (MIC) was measured by the microbroth dilution method in accordance with the procedures recommended by CLSI (Clinical and Laboratory Standards Institute) using 1×10^5 CFU/mL as an inoculum dose and a cation-adjusted Mueller-Hinton broth as a test medium.
(§2) The strains used are as described in the table below.

K. pneumoniae SR01358 = experiment: MIC by microbroth dilution (CLSI), strain No. 2; details: Klebsiella pneumoniae; K. pneumoniae SR01358, KPC-2; KPC-producing strain; cation-adjusted Mueller-Hinton broth; read-out: minimum inhibitory concentration (MIC), Strain No. 2
Description: as §1, §2

K. pneumoniae SR01453 = experiment: MIC by microbroth dilution (CLSI), strain No. 3; details: K. pneumoniae SR01453, NDM-1, MBL-producing strain, carbapenem-resistant, cation-adjusted Mueller-Hinton broth; for MIC: Klebsiella pneumoniae, read-out: minimum inhibitory concentration (MIC), Strain No. 3
Description: as §1, §2

K. pneumoniae NCTC13443 = experiment: MIC by microbroth dilution (CLSI), strain No. 4; details: K. pneumoniae NCTC13443, NDM-1, MBL-producing strain, carbapenem-resistant, cation-adjusted Mueller-Hinton broth; for MIC: Klebsiella pneumoniae, read-out: minimum inhibitory concentration (MIC), Strain No. 4
Description: as §1, §2

E. cloacae SR36276 = experiment: MIC by microbroth dilution (CLSI), strain No. 5; details: E. cloacae SR36276, AmpC, highly AmpC-producing strain, ceftazidime-resistant, cefepime-sensitive, cation-adjusted Mueller-Hinton broth; for MIC: Enterobacter cloacae, read-out: minimum inhibitory concentration (MIC), Strain No. 5
Description: as §1, §2

**Q.** What does the source list for `Nc1nc(/C(=N/OCC(=O)O)C(=O)N[C@@H]2C(=O)N3[C@@H]2[S@@+]([O-])C[C@@H]2CC(=O)O[C@@]23C(=O)O)cs1` [Compound I-001]?
**A.** MIC (E. cloacae ATCC13047): 0.125 µg/mL (≈ 0.249 µM); MIC (K. pneumoniae SR01358): 0.25 µg/mL (≈ 0.499 µM); MIC (K. pneumoniae SR01453): 0.063 µg/mL (≈ 0.126 µM); MIC (K. pneumoniae NCTC13443): 1 µg/mL (≈ 1.99 µM); MIC (E. cloacae SR36276): 0.063 µg/mL (≈ 0.126 µM)

**Q.** For `Nc1nc(/C(=N/OCC(=O)O)C(=O)N[C@@H]2C(=O)N3[C@@H]2S(=O)(=O)C[C@@H]2CC(=O)O[C@@]23C(=O)O)cs1` [Compound I-003], which MIC (E. cloacae ATCC13047) is on record?
**A.** Its MIC is 0.25 µg/mL (≈ 0.483 µM).

**Q.** What about the MIC (K. pneumoniae SR01358) of the same compound?
**A.** Its MIC is 0.5 µg/mL (≈ 0.966 µM).

**Q.** What about the MIC (K. pneumoniae SR01453) of the same compound?
**A.** The MIC was 0.25 µg/mL (≈ 0.483 µM).

**Q.** What about the MIC (K. pneumoniae NCTC13443) of the same compound?
**A.** The MIC was 4 µg/mL (≈ 7.73 µM).

**Q.** And the MIC (E. cloacae SR36276)?
**A.** Its MIC is 1 µg/mL (≈ 1.93 µM).

**Q.** Which MIC (E. cloacae ATCC13047) does the source give for `C[C@H](O/N=C(\C(=O)N[C@@H]1C(=O)N2[C@@H]1[S@@+]([O-])C[C@@H]1CC(=O)O[C@@]12C(=O)O)c1csc(N)n1)C(=O)O` [Compound I-005] here?
**A.** The MIC was 0.5 µg/mL (≈ 0.97 µM).

**Q.** And the MIC (K. pneumoniae SR01358)?
**A.** The MIC was 0.5 µg/mL (≈ 0.97 µM).

**Q.** What about the MIC (K. pneumoniae SR01453) of the same compound?
**A.** The MIC was 0.125 µg/mL (≈ 0.242 µM).

**Q.** What about the MIC (K. pneumoniae NCTC13443) of the same compound?
**A.** Its MIC is 1 µg/mL (≈ 1.94 µM).

**Q.** What about the MIC (E. cloacae SR36276) of the same compound?
**A.** The MIC was 0.125 µg/mL (≈ 0.242 µM).

**Q.** How did the MIC (E. cloacae ATCC13047) turn out when `CC(C)(O/N=C(\C(=O)N[C@@H]1C(=O)N2[C@@H]1[S@@+]([O-])C[C@@H]1CC(=O)O[C@@]12C(=O)[O-])c1csc(N)n1)C(=O)[O-].[Na+].[Na+]` [Compound I-007] was run?
**A.** The MIC was 0.25 µg/mL.

**Q.** And the MIC (K. pneumoniae SR01358)?
**A.** Its MIC is 0.5 µg/mL.

**Q.** And the MIC (K. pneumoniae SR01453)?
**A.** Its MIC is 0.5 µg/mL.

**Q.** What about the MIC (K. pneumoniae NCTC13443) of the same compound?
**A.** The MIC was 2 µg/mL.

**Q.** What about the MIC (E. cloacae SR36276) of the same compound?
**A.** Its MIC is 0.25 µg/mL.

**Q.** What does the source list for `CC[C@H](O/N=C(\C(=O)N[C@@H]1C(=O)N2[C@@H]1[S@@+]([O-])C[C@@H]1CC(=O)O[C@@]12C(=O)O)c1csc(N)n1)C(=O)O` [Compound I-009]?
**A.** MIC (E. cloacae ATCC13047): 0.5 µg/mL (≈ 0.944 µM); MIC (K. pneumoniae SR01453): 0.5 µg/mL (≈ 0.944 µM); MIC (K. pneumoniae NCTC13443): 4 µg/mL (≈ 7.55 µM); MIC (E. cloacae SR36276): 0.25 µg/mL (≈ 0.472 µM)

**Q.** `Nc1nc(/C(=N/OCCF)C(=O)N[C@@H]2C(=O)N3[C@@H]2[S@@+]([O-])C[C@@H]2CC(=O)O[C@@]23C(=O)O)cs1` [Compound I-010] was tested. Which MIC (E. cloacae ATCC13047) did it give?
**A.** The MIC was 0.25 µg/mL (≈ 0.511 µM).

**Q.** What about the MIC (K. pneumoniae SR01453) of the same compound?
**A.** Its MIC is 0.25 µg/mL (≈ 0.511 µM).

**Q.** And the MIC (K. pneumoniae NCTC13443)?
**A.** Its MIC is 8 µg/mL (≈ 16.3 µM).

**Q.** And the MIC (E. cloacae SR36276)?
**A.** The MIC was 1 µg/mL (≈ 2.04 µM).

**Q.** What does the source list for `Nc1nc(/C(=N/OC2(C(=O)[O-])CC2)C(=O)N[C@@H]2C(=O)N3[C@@H]2[S@@+]([O-])C[C@@H]2CC(=O)O[C@@]23C(=O)[O-])cs1.[Na+].[Na+]` [Compound I-015]?
**A.** MIC (E. cloacae ATCC13047): 0.125 µg/mL; MIC (K. pneumoniae SR01358): 0.5 µg/mL; MIC (K. pneumoniae SR01453): 0.125 µg/mL; MIC (K. pneumoniae NCTC13443): 1 µg/mL; MIC (E. cloacae SR36276): 0.125 µg/mL

**Q.** Which MIC (E. cloacae ATCC13047) does the source give for `CCO/N=C(\C(=O)N[C@@H]1C(=O)N2[C@@H]1[S@@+]([O-])C[C@@H]1CC(=O)O[C@@]12C(=O)O)c1csc(N)n1` [Compound I-019] here?
**A.** The MIC was 0.5 µg/mL (≈ 1.06 µM).

**Q.** What about the MIC (K. pneumoniae SR01453) of the same compound?
**A.** Its MIC is 0.5 µg/mL (≈ 1.06 µM).

**Q.** What about the MIC (K. pneumoniae NCTC13443) of the same compound?
**A.** The MIC was 8 µg/mL (≈ 17 µM).

**Q.** What about the MIC (E. cloacae SR36276) of the same compound?
**A.** The MIC was 1 µg/mL (≈ 2.12 µM).

**Q.** What does the source list for `CC(C)[C@H](O/N=C(\C(=O)N[C@@H]1C(=O)N2[C@@H]1[S@@+]([O-])C[C@@H]1CC(=O)O[C@@]12C(=O)O)c1csc(N)n1)C(=O)O` [Compound I-022]?
**A.** MIC (K. pneumoniae SR01453): 1 µg/mL (≈ 1.84 µM); MIC (E. cloacae SR36276): 0.5 µg/mL (≈ 0.92 µM)

**Q.** Which results are given for `CO/N=C(\C(=O)N[C@@H]1C(=O)N2[C@@H]1[S@@+]([O-])C[C@@H]1CC(=O)O[C@@]12C(=O)[O-])c1csc(N)n1.[Na+]` [Compound I-023]?
**A.** MIC (E. cloacae ATCC13047): 0.25 µg/mL; MIC (K. pneumoniae SR01358): 1 µg/mL; MIC (K. pneumoniae SR01453): 0.25 µg/mL; MIC (K. pneumoniae NCTC13443): 4 µg/mL; MIC (E. cloacae SR36276): 1 µg/mL

**Q.** Which MIC (K. pneumoniae SR01453) does the source give for `Nc1nc(/C(=N/O)C(=O)N[C@@H]2C(=O)N3[C@@H]2[S@@+]([O-])C[C@@H]2CC(=O)O[C@@]23C(=O)O)cs1` [Compound I-024] here?
**A.** Its MIC is 2 µg/mL (≈ 4.51 µM).

**Q.** And the MIC (E. cloacae SR36276)?
**A.** Its MIC is 4 µg/mL (≈ 9.02 µM).

**Q.** Which results are given for `Nc1nc(/C(=N/O[C@H](CO)C(=O)O)C(=O)N[C@@H]2C(=O)N3[C@@H]2[S@@+]([O-])C[C@@H]2CC(=O)O[C@@]23C(=O)O)cs1` [Compound I-026]?
**A.** MIC (E. cloacae ATCC13047): 0.125 µg/mL (≈ 0.235 µM); MIC (K. pneumoniae SR01358): 0.5 µg/mL (≈ 0.941 µM); MIC (K. pneumoniae SR01453): 0.125 µg/mL (≈ 0.235 µM); MIC (K. pneumoniae NCTC13443): 1 µg/mL (≈ 1.88 µM); MIC (E. cloacae SR36276): 0.125 µg/mL (≈ 0.235 µM)

**Q.** What does the source list for `Nc1nc(/C(=N/O[C@@H](CO)C(=O)O)C(=O)N[C@@H]2C(=O)N3[C@@H]2[S@@+]([O-])C[C@@H]2CC(=O)O[C@@]23C(=O)O)cs1` [Compound I-027]?
**A.** MIC (E. cloacae ATCC13047): 0.063 µg/mL (≈ 0.119 µM); MIC (K. pneumoniae SR01358): 0.25 µg/mL (≈ 0.47 µM); MIC (K. pneumoniae SR01453): 0.063 µg/mL (≈ 0.119 µM); MIC (K. pneumoniae NCTC13443): 1 µg/mL (≈ 1.88 µM); MIC (E. cloacae SR36276): ≤ 0.031 µg/mL

**Q.** `Nc1nc(/C(=N/OCC(=O)O)C(=O)N[C@@H]2C(=O)N3[C@@H]2[SH](O)C[C@@H]2CC(=O)O[C@@]23C(=O)O)c(F)s1` (some centres unmarked) [Compound I-036] was tested. Which “minimum inhibitory concentration (MIC), Strain No. 1” value (E. cloacae ATCC13047) did it give?
**A.** Its value is 0.5 µg/mL (≈ 0.959 µM).

**Q.** What about the “minimum inhibitory concentration (MIC), Strain No. 3” value (K. pneumoniae SR01453) of the same compound?
**A.** The value was 1 µg/mL (≈ 1.92 µM).

**Q.** What about the “minimum inhibitory concentration (MIC), Strain No. 4” value (K. pneumoniae NCTC13443) of the same compound?
**A.** The value was 8 µg/mL (≈ 15.3 µM).

**Q.** What about the “minimum inhibitory concentration (MIC), Strain No. 5” value (E. cloacae SR36276) of the same compound?
**A.** Its value is 1 µg/mL (≈ 1.92 µM).

**Q.** How did the MIC (E. cloacae ATCC13047) turn out when `Nc1nc(/C(=N/OC(F)C(=O)O)C(=O)N[C@@H]2C(=O)N3[C@@H]2[S@@+]([O-])C[C@@H]2CC(=O)O[C@@]23C(=O)O)cs1` (some centres unmarked) [Compound I-037] was run?
**A.** Its MIC is 0.5 µg/mL (≈ 0.963 µM).

**Q.** And the MIC (K. pneumoniae SR01358)?
**A.** Its MIC is 1 µg/mL (≈ 1.93 µM).

**Q.** What about the MIC (K. pneumoniae SR01453) of the same compound?
**A.** Its MIC is 0.25 µg/mL (≈ 0.481 µM).

**Q.** And the MIC (K. pneumoniae NCTC13443)?
**A.** The MIC was 8 µg/mL (≈ 15.4 µM).

**Q.** And the MIC (E. cloacae SR36276)?
**A.** Its MIC is 0.5 µg/mL (≈ 0.963 µM).
